Measured values reported in ChEMBL document CHEMBL5325400 (Eur J Med Chem, 2023).
Active and inactive are the calls of the source. The calls are words filed in the database; no cut-off is given here.

Key:
A549 [1] = experiment: Antitumor activity against human A549 cells xenografted in BALB/c mouse assessed as tumor volume at 10 mg/kg, ip administered every other day for 25 days; assay type: functional; settings: time 25 day
A549 [2] = experiment: Antitumor activity against human A549 cells xenografted in BALB/c mouse assessed as tumor weight at 10 mg/kg, ip administered every other day for 25 days; assay type: functional, organism-based; settings: time 25.0 day
[3] = Toxicity in BALB/c mouse xenografted with human A549 cells assessed as change in body weight at 10 mg/kg, ip administered every other day for 25 days; assay type: organism-based; settings: in vivo, 600 h, time 25 day
A549 [4] = experiment: Antiproliferative activity against human A549 cells assessed as inhibition of cell growth measured after 48 hrs by MTT assay; assay type: functional, cell-based; settings: A549, 48 h
A549 [5] = experiment: Antitumor activity against human A549 cells xenografted in BALB/c mouse assessed as tumor growth inhibition at 10 mg/kg, ip administered every other day for 25 days; assay type: functional; settings: A549, 600 h, time 25 day, read-out: TGI
A2780/Taxol = experiment: Antiproliferative activity against paclitaxel resistant human A2780/Taxol cells assessed as inhibition of cell growth incubated for 48 hrs by MTT assay; assay type: functional, cell-based
HepG2 = experiment: Antiproliferative activity against human HepG2 cells assessed as inhibition of cell growth measured after 48 hrs by MTT assay; assay type: functional, cell-based; settings: HepG2, 48 h
B16-F10 = experiment: Antiproliferative activity against mouse B16-F10 cells assessed as inhibition of cell growth measured after 48 hrs by MTT assay; assay type: functional, cell-based; settings: B16-F10, 48 h
Tubulin (Sus scrofa) = Tubulin (Sus scrofa) (UniProt P02554+P02550); experiment: Inhibition of porcine brain tubulin polymerization at 10 uM measured at 1 min interval for 60 mins by fluorescence based analysis
Sequence of Tubulin (Sus scrofa) (P02550 whole entry, looked up): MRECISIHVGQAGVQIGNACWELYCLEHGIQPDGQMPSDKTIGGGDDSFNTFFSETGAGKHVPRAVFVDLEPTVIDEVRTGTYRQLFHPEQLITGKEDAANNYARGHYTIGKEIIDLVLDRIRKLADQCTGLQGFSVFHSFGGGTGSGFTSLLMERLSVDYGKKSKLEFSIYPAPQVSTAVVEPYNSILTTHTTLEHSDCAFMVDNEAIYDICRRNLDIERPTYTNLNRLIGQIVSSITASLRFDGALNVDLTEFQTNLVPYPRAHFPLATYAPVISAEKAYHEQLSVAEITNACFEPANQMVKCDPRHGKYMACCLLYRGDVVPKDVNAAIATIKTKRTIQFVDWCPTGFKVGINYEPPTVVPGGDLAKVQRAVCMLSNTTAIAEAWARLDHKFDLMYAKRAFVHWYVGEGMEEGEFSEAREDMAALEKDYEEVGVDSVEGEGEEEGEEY
Sequence of Tubulin (Sus scrofa) (P02554 whole entry, looked up): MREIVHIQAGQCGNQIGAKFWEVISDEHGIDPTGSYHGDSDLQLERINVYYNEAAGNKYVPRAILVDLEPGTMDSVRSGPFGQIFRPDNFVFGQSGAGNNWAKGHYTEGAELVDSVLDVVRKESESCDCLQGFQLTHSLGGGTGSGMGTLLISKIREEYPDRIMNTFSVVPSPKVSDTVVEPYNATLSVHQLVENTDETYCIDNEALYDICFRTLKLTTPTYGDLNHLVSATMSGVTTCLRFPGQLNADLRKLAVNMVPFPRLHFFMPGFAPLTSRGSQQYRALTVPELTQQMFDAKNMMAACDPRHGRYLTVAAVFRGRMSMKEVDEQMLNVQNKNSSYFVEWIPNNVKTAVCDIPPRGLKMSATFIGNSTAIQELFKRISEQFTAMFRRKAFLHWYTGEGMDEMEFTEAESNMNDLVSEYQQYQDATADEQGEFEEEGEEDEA

SK-OV-3 = experiment: Antiproliferative activity against human SK-OV-3 cells assessed as inhibition of cell growth measured after 48 hrs by MTT assay; assay type: functional, cell-based; settings: SK-OV-3, 48 h
MDA-MB-231 = experiment: Antiproliferative activity against human MDA-MB-231 cells assessed as inhibition of cell growth measured after 48 hrs by MTT assay; assay type: functional, cell-based; settings: MDA-MB-231, 48 h
A2780 = experiment: cells; settings: Homo sapiens, A2780, 48 h
Description: Antiproliferative activity against human A2780 cells assessed as inhibition of cell growth incubated for 48 hrs by MTT assay

HeLa = experiment: Antiproliferative activity against human HeLa cells assessed as inhibition of cell growth measured after 48 hrs by MTT assay; assay type: functional, cell-based
A549 [6] = experiment: Antiproliferative activity against human A549 cells expressing lentivirus RNAi VTI-96659 assessed as inhibition of cell growth measured after 48 hrs by MTT assay; assay type: functional, cell-based
A549 [7] = experiment: Antiproliferative activity against human A549 cells expressing lentivirus RNAi VTI-96658 assessed as inhibition of cell growth measured after 48 hrs by MTT assay; assay type: functional, cell-based
A549 [8] = experiment: Antiproliferative activity against human A549 cells expressing lentivirus RNAi VTI-96660 assessed as inhibition of cell growth measured after 48 hrs by MTT assay; assay type: functional, cell-based

Row | Compound | Activity (A549 [1]) | Activity (A549 [2]) | Activity [3] | IC50 (A549 [4]) | inhibition in vivo at 10 mg/kg (A549 [5]) | IC50 (A2780/Taxol) | IC50 (HepG2) | IC50 (B16-F10) | inhibition (Tubulin (Sus scrofa)) | IC50 (SK-OV-3) | IC50 (MDA-MB-231) | IC50 (A2780) | IC50 (HeLa) | Activity (A549 [6]) | Activity (A549 [7]) | Activity (A549 [8])
1 | CC(=O)O[C@H]1C(=O)[C@@]2(C)[C@H]([C@H](OC(=O)c3ccccc3)[C@]3(O)C[C@H](OC(=O)[C@H](O)[C@@H](NC(=O)c4ccccc4)c4ccccc4)C(C)=C1C3(C)C)[C@]1(OC(C)=O)CO[C@@H]1C[C@@H]2O [PACLITAXEL] | 46.53% | Active | Non-Toxic | 3.8 nM | 48.6% | 17900 nM | 2.5 nM | > 1000 nM | inactive | 34.5 nM | 1.1 nM |  |  |  |  | 
2 | COc1cc2c(c(OC)c1OC)-c1ccc(OC)c(=O)cc1[C@@H](NC(C)=O)CC2 [COLCHICINE] |  |  |  |  |  | 253 nM | 83.7 nM | 29.2 nM |  | 7.2 nM | 67.4 nM | 20 nM | 33.5 nM |  |  | 
3 | O=C(Nc1cccc(Nc2cc(Nc3cccc(C(F)(F)F)c3)ncn2)c1)C1CC1 |  |  |  | 84.1 nM |  |  | 28.5 nM | 60.7 nM | Active | 63.2 nM | 45.3 nM |  | 83.4 nM | Active | Active | Active
